# Experimental data published in US9782427B2, “Methods for treating cancer using TOR kinase inhibitor combination therapy” (Signal Pharmaceuticals, LLC, priority 2013, dated 2017).
# What was measured:
# [1] = test system: seventeen breast cancer cell line panel; experiment: Anti-proliferation assay (ATPLite), breast cancer cell line panel; assay type: cell-based; details: cell lines where inhibition levels greater than fifty percent were reached; 72 h; read-out: median GI50
# Procedure: Cells were thawed from a liquid nitrogen preserved state. Once cells expanded and divided at their expected doubling times, screening began.
# Cells were equilibrated in assay plates via centrifugation and placed in incubators attached to the Dosing Modules at 37° C. for twenty-four hours before treatment. […] These T zero (T0) plates were read using ultra-sensitive luminescence on Envision Plate Readers. Treated assay plates were incubated with compound (single compound or combination) for seventy-two hours. After seventy-two hours, plates were developed for endpoint analysis using ATPLite. All data points were collected via automated processes; quality controlled; and analyzed. Assay plates were accepted if they passed the following quality control standards: relative luciferase values were consistent throughout the entire experiment, Z-factor scores were greater than 0.6, untreated/vehicle controls behaved consistently on the plate. The calculation for synergy score is provided below.
# Growth Inhibition (GI) was used as a measure of cell viability. The cell viability of vehicle was measured at the time of dosing (T0) and after seventy-two hours (T72). A GI reading of 0% represents no growth inhibition—cells treated with compound and T72 vehicle signals are matched. […] GI was calculated by applying the following test and equation: If T<V0:100*[1−(T−V0)/V0] […]
# [2] = test system: HepG2 cells; experiment: Anchorage independent growth (colony formation) assay; assay type: cell-based, Human; details: single agent; for colony formation: 8 days
# Procedure: (§1) The effect of Compound 1 on anchorage-independent growth (AIG) was assessed by colony formation assay in 2 Human Hepatocellular Carcinoma (“HHC”) cell lines, HepG2 and SK-Hep-1.
# (§2) Cell Lines/Cells. Human cell lines HepG2 and SK-Hep-1 cells were obtained from American Type Culture Collection (ATCC; Manassas, Va.). Cells were cultured in DMEM (Dulbecco's Modified Eagle's Medium) (Mediatech; Mannasas, Va.) with 10% Premium FBS (Lonza, Walkersville, Md.).
# (§3) (1) Single Agent Colony Formation Assay. Nobel Agar (1.2 grams; BD; Franklin Lakes, N.J.) was placed in a 100-mL sterile bottle. Sterile water (100 mL) was added and microwaved until the agar boiled. Equal volumes of agar and 2×RPMI medium (ECE Scientific; Doylestown, Pa.) were mixed and 300 μL were transferred to each well in a 24-well flat bottom plate (BD; Franklin Lakes, N.J.). Plates were kept at 4° C. until the agar solidified. Cultures of HepG2 and SK-Hep-1 cells were harvested and resuspended in culture medium at 3.6×10^3 cells/mL. Equal volumes of agar, 2×RPMI, and cell suspension (1:1:1) were mixed in a sterile tube and 500 μL/well were immediately transferred into the 24-well plates. Plates were kept at 4° C. until the agar solidified. Culture medium (500 μL) containing compound or DMSO was added to each well (final DMSO concentration for each treatment was 0.2%). Compound 1 was tested at final concentrations of 0.1, 0.3, 1, 3, 10 and 30 μM. 5-AZA was tested at final concentrations of 1, 3 and 10 μM. Cell treatments were set up in triplicate. Cells were incubated for 8-10 days at 37° C. in a 5% CO2 atmosphere. Photographs (2× magnification) of each well were taken using a Nikon DXM1200 Digital Camera and Nikon ACT1 software and saved as a TIFF file. ImageQuant TL (GE Healthcare; Piscataway, N.J.) Colony Count Software was used to count colonies. (2) Combination Study Colony Formation Assay. Nobel Agar (1.2 grams; BD; Franklin Lakes, N.J.) was placed in a 100-mL sterile bottle. Sterile water (100 mL) was added and microwaved until the agar boiled. Equal volumes of agar and 2×RPMI medium (ECE Scientific; Doylestown, Pa.) were mixed and 300 μL were transferred to each well in a 24-well flat bottom plate (BD; Franklin Lakes, N.J.). Plates were kept at 4° C. until the agar solidified. Cultures of HepG2 and SK-Hep-1 cells were harvested and resuspended in culture medium at 3.6×10^3 cells/mL. Equal volumes of agar, 2×RPMI, and cell suspension (1:1:1) were mixed in a sterile tube and 500 μL/well were immediately transferred into the 24-well plates. Plates were kept at 4° C. until the agar solidified. Culture medium (500 μL) containing compound or DMSO was added to each well (final DMSO concentration for each treatment was 0.2%). Cells were treated with single treatment as follows: Compound 1 was tested at final concentrations of 0.1 and 0.3 μM. 5-AZA was tested at 3 μM. Combinations of Compound 1 at 0.1 and 0.3 μM were tested with 3 μM 5-AZA. Cell treatments were set up in triplicate. Cells were incubated for 8-10 days at 37° C. in a 5% CO2 atmosphere. Photographs (2× magnification) of each well were taken using a Nikon DXM1200 Digital Camera and Nikon ACT1 software and saved as a TIFF file. ImageQuant TL (GE Healthcare; Piscataway, N.J.) Colony Count Software was used to count colonies.
# (§4) Significance versus the DMSO control was calculated using One Way ANOVA and Dunnett's Post test or unpaired t tests using GraphPad Prism v5.01. To evaluate the combinatory effect, data from the three independent experiments were analyzed by comparing the combinatory response against the theoretical additive response of the two agents.
# [3] = test system: SK-Hep-1 cells; experiment: as above; assay type: cell-based, Human; details: single agent
# Procedure: as §1, §2, §3, §4
# [4] = test system: Caov-3; experiment: Cell viability (CellTiter-Glo) and combination index, ovarian cell line; assay type: cell-based; details: combination with VIDAZA, 3 days, CalcuSyn, Chou-Talalay
# Procedure: (§5) Cell viability was assessed using the Cell Titer-Glo® Luminescent Cell Viability Assay, Catalog Number G7570 (Promega Corporation, Madison, Wis.). The assay is a homogenous method of determining the number of viable cells in culture based on quantitation of the adenosine triphosphate (ATP) present, an indicator of metabolically active cells. The homogenous assay procedure involves adding the single reagent (CellTiter-Glo Reagent) directly to cells cultured in serum-supplemented medium. Cells were plated into a 96-well flat bottom plate (Costar Catalog Number 33595) at densities that were previously optimized for each cell line. The cells were incubated overnight in 5% CO2 at 37° C. The following day, compound dilutions were prepared and all concentrations were assayed in triplicate. The cells were incubated with a TOR kinase inhibitor or a TOR kinase inhibitor and a second active agent, in 5% CO2 at 37° C. for 3 days. After a 3-day incubation period, 100 μL, of CellTiter-Glo reagent was added to each well for 2 min with shaking and further incubated for 10 min (no shaking) at room temperature to stabilize the signal. The luminescence was measured on the VICTOR X2 multilabel plate reader. The percent growth inhibition was calculated using the DMSO control in the same plate (no compound) response as 100% cell growth. For single compound treatments (TORKi and second active agents separately), the average values from triplicates were plotted to obtain IC50 values using software XLfit from IDBS. The formula used for determining IC50 in XLfit was model number 205, which utilizes a 4 Parameter Logistic Model or Sigmoidal Dose-Response Model to calculate the IC50 values.
# (§6) The cell viability assay was first performed with the TOR kinase inhibitor and the individual second active agents, to determine the dose range for subsequent combination studies. […] The TOR kinase inhibitor and the second active agent were each added to one well containing a final concentration of 0.2% DMSO (in triplicate). In the same plate in triplicate, the cells were treated with the TOR kinase inhibitor and each second active agent either simultaneously or sequentially (containing 0.2% DMSO). The number of cells affected by compound treatment was normalized to the DMSO control (100% viability) and the data was imported into the CalcuSyn software (V2.1, Biosoft). Synergism was quantitated by the combination index (CI) using CalcuSyn according to Chou-Talalay's CI method with mathematical modeling and simulations. […] ED50 is the median effect dose at which a 50% growth inhibition is achieved.
# [5] = test system: Ovcar-5; experiment: as above; assay type: cell-based; details: combination with VIDAZA, 3 days, CalcuSyn, Chou-Talalay
# Procedure: as §5, §6
# [6] = test system: Ovcar-4; experiment: as above; assay type: cell-based; details: combination with VIDAZA, 3 days, CalcuSyn, Chou-Talalay
# Procedure: as §5, §6
# [7] = test system: Ovcar-8; experiment: as above; assay type: cell-based; details: combination with VIDAZA, 3 days, CalcuSyn, Chou-Talalay
# Procedure: as §5, §6
# [8] = test system: Ovcar-3; experiment: as above; assay type: cell-based; details: combination with VIDAZA, 3 days, CalcuSyn, Chou-Talalay
# Procedure: as §5, §6
# [9] = test system: subjects with higher-risk MDS; details: Phase III study, administered subcutaneously; cited from earlier work
# [10] = concentrations of 0.1 to 100 μM
smiles,measurement,setting,value
"CCN1C(=O)CNc2ncc(-c3ccc(-c4nc[nH]n4)nc3C)nc21 [Compound 2, 1-ethyl-7-(2-methyl-6-(1H-1,2,4-triazol-3-yl)pyridin-3-yl)-3,4-dihydropyrazino[2,3-b]pyrazin-2(1H)-one]",GI50,[1],140 nM
"CO[C@H]1CC[C@H](N2C(=O)CNc3ncc(-c4ccc(C(C)(C)O)nc4)nc32)CC1 [Compound 1, 7-(6-(2-hydroxypropan-2-yl)pyridin-3-yl)-1-((1r,4r)-4-methoxycyclohexyl)-3,4-dihydropyrazino-[2,3-b]pyrazin-2(1H)-one]",colony formation,[2]; 0.1 μM,74 % of control
same,colony formation,[2]; 0.3 μM,57 % of control
same,colony formation,[2]; 1 μM,33 % of control
same,colony formation,[2]; 3 μM,24 % of control
same,colony formation,[2]; 10 μM,16 % of control
same,colony formation,[2]; 30 μM,11 % of control
same,anti-colony forming activity,[2]; [10],dose-dependent and significant anti-colony forming activity
same,inhibition of colony formation,[3]; 3 μM and higher,100%
same,colony formation,"[3]; 0.3-30 μM, 8-10 days",0-45 % of control
same,anti-colony forming activity,[3]; [10],dose-dependent and significant anti-colony forming activity
same,Combination index (CI) at the ED50,[4],1.08
same,Combination index (CI) at the ED50,[5],0.92
same,Combination index (CI) at the ED50,[6],0.99
same,Combination index (CI) at the ED50,[7],0.99
same,Combination index (CI) at the ED50,[8],1.23
"Nc1ncn([C@@H]2O[C@H](CO)[C@@H](O)[C@H]2O)c(=O)n1 [Compound 5-AZA, 4-amino-1-β-D-ribofuranosyl-1,3,5-triazin-2(1H)-one, reference compound]",colony formation,"[2]; at 1, 3 and 10 μM",43-76 % of control
same,colony formation,"[3]; 10 μM, 8 days",38 % of control
same,survival and time to AML transformation or death,[9],significantly prolonged survival and time to AML transformation or death
"Cc1nc(-c2nnc[nH]2)ccc1-c1cnc2c(n1)N(CCC1CCOCC1)C(=O)CN2 [Compound 3, 7-(2-methyl-6-(4H-1,2,4-triazol-3-yl)pyridin-3-yl)-1-(2-(tetrahydro-2H-pyran-4-yl)ethyl)-3,4-dihydropyrazino[2,3-b]pyrazin-2(1H)-one]",Combination index (CI) at the ED50,[4],0.92
same,Combination index (CI) at the ED50,[5],0.76
same,Combination index (CI) at the ED50,[6],0.61
same,Combination index (CI) at the ED50,[7],0.81
same,Combination index (CI) at the ED50,[8],0.55
